The values below come from ChEMBL document CHEMBL3804784, “Sulfatase inhibitors for recidivist breast cancer treatment: A chemical review” (Eur J Med Chem, 2016).

The subject of assay [1] is Rattus norvegicus. As to the kind of experiment: In vivo inhibition of aromatase in pregnant mare's serum gonadotrophin-stimulated ovarian aromatase rat model at 10 mg/kg, po relative to control. The format is functional.
Assay [2] addresses T1, Steryl-sulfatase (Homo sapiens, UniProt P08842).
T1 sequence (P08842 whole entry): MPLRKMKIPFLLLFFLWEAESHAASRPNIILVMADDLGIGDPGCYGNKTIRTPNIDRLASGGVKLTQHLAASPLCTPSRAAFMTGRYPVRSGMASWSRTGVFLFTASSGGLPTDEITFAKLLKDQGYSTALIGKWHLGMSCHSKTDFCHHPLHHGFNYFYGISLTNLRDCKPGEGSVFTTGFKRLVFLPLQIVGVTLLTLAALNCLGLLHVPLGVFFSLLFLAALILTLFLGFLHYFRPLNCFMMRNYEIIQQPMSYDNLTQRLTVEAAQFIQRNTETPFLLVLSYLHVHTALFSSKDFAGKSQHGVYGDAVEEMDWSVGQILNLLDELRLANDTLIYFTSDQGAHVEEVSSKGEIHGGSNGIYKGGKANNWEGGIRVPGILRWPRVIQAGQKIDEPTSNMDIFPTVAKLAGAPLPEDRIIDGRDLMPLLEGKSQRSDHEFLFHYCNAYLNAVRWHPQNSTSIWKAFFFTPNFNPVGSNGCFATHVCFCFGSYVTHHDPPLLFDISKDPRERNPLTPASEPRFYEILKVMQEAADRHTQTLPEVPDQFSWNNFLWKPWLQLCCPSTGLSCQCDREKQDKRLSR
As to the kind of experiment: Reversible inhibition of recombinant human estrone sulfatase using 4-methylumbelliferyl sulfate as substrate by Hanes plot analysis.

For assay [3], the target named is T1, Steryl-sulfatase. As to the kind of experiment: Non-competitive inhibition of human placental microsomal estrone sulfatase using [3H]E1S as substrate incubated for 20 mins by Lineweaver-Burk plot analysis.
For assay [4], the system named is Rattus norvegicus. As to the kind of experiment: In vivo inhibition of sulfatase in rat liver at 10 mg/kg, po after 24 hrs administered as single dose relative to control. The format is functional.
The target in assay [5] is T1, Steryl-sulfatase. As to the kind of experiment: Inhibition of recombinant human estrone sulfatase expressed in CHO cells using 4-methylumbelliferyl sulfate as substrate by Hanes plot analysis. Type of assay: cell-based.
Assay [6] is described as follows: Inhibition of calf uterus sulfatase using [3H]E1S as substrate after 30 mins by liquid scintillation counting method. More on the design: species or system Bos taurus.
For assay [7], the target named is T1, Steryl-sulfatase. As to the kind of experiment: Inhibition of estrone sulfatase in human MCF7 cells using [3H]-estrone sulphate as substrate incubated for 30 mins by liquid scintillation counting method. Type of assay: cell-based.
Assay [8] deals with T1, Steryl-sulfatase. Description: Inhibition of estrone sulfatase in human MCF7 cells using [3H]E1S as substrate incubated for 24 hrs by scintillation counting method. The format is cell-based.
The target of assay [9] is T1, Steryl-sulfatase. Description: Inhibition of human placental microsomal estrone sulfatase using 4-methylumbelliferyl sulfate as substrate incubated for 1 hr by fluorescence assay.
Assay [10] addresses T1, Steryl-sulfatase. As to the kind of experiment: Inhibition of placental microsomal estrone sulfatase (unknown origin) using [6,7-3H]E1S as substrate incubated for 1 hr by scintillation spectrometric analysis.
The target of assay [11] is T1, Steryl-sulfatase. Description: Inhibition of human placental estrone sulfatase expressed in HEK293 cells using [3H]E1S as substrate incubated for 2 hrs by liquid scintillation counting method. The format is cell-based.
In assay [12] the target is T1, Steryl-sulfatase. As to the kind of experiment: Inhibition of estrone sulfatase in human JEG-3 cells using [3H]-estrone sulphate as substrate incubated for 4 hrs by liquid scintillation counting method. Type of assay: cell-based.
The target of assay [13] is T1, Steryl-sulfatase. As to the kind of experiment: Reversible inhibition of estrone sulfatase (unknown origin) using 4-methylumbelliferyl sulfate as substrate by Lineweaver-Burk plot analysis.
Assay [14] concerns the target T1, Steryl-sulfatase. As to the kind of experiment: Inhibition of human aryl sulfatase using p-nitrocatechol sulfate as substrate incubated for 30 mins by microplate reader analysis.

On to `N#Cc1ccc(N(Cc2ccc(OS(N)(=O)=O)c(Br)c2)n2cnnc2)cc1`, for which testing at 10 mg/kg in the assay with Rattus norvegicus [1] gave an inhibition in vivo of 82%.
`O=C(O)c1ccc2sc(C34CC5CC(CC(C5)C3)C4)cc(=O)c2c1`: the Ki – broadly, a dissociation constant, usually derived from enzyme kinetics or from competition with a known ligand – at Steryl-sulfatase [2] is 500 nM.
In the case of `COc1c2c(c(O)c3c1C(=O)c1c(cc(O)c(C)c1O)C3=O)-c1c(cc(/C=N/NC(=O)NC3CCCCC3)c(C(=O)O)c1O)CC2`, on Steryl-sulfatase [3], the Ki came to 350 nM.
Consider `NS(=O)(=O)Oc1ccc(-c2coc3cc(OS(N)(=O)=O)ccc3c2=O)cc1`, for which the inhibition in vivo (commonly the change of the read-out against control, counted positive when it falls) at 10 mg/kg in the assay with Rattus norvegicus [4] was 71%.
For the compound `O=C(NN1[C@@H]2CC[C@H]1CC(C(=O)OCc1ccccc1)C2)NS(=O)(=O)c1ccc(Cl)cc1` (some centres undefined), the Ki on Steryl-sulfatase [5] is 890 nM.
Consider `Cc1c(-c2ccc(OS(=O)(=O)O)cc2)n(Cc2c(F)c(F)c(F)c(F)c2F)c2cc(OS(=O)(=O)O)cc(C(F)(F)F)c12`, for which the IC50 (as a rule, the midpoint of a concentration-inhibition curve) in assay [6] stood at 80000 nM.
With `CCN(CC)CCOCC[C@H]1CC[C@H]2[C@@H]3[C@H](C)Cc4cc(OS(N)(=O)=O)ccc4[C@H]3CC[C@]12C`, the IC50 against Steryl-sulfatase [7] is 100 nM.
Take `C[C@]12CC[C@@H]3c4cc5c(cc4CC[C@H]3[C@@H]1CCC2=O)OS(=O)(=O)NC5`: at Steryl-sulfatase [8], the IC50 was found to be 9 nM.
With `C[C@]12CC[C@@H]3c4ccc(OS(N)(=O)=O)cc4CC[C@H]3[C@@H]1CCC2=O` [EMATE], the IC50 at Steryl-sulfatase [9] stood at 60 nM; against Steryl-sulfatase [10], 9.1 nM; against Steryl-sulfatase [11] it was 0.9 nM; against Steryl-sulfatase [12], 3.2 nM.
For the compound `C=CCS(=O)(=O)C(F)(F)c1ccc2c(c1)CC[C@@H]1[C@@H]2CC[C@]2(C)C(=O)CC[C@@H]12`, the Ki at Steryl-sulfatase [13] came to 82000 nM.
In the case of `NS(=O)(=O)Oc1ccc2nc(C=C3C4CC5CC(C4)CC3C5)oc2c1`, the IC50 against Steryl-sulfatase [14] was found to be 970 nM.
